Publication PMC11940079, “Identification of a Possible Endocannabinoid-Mediated Mechanism of Action of Cetylated Fatty Acids” (Biomolecules, 2025)

Assays:
[1] = target: T1, human monoacylglycerol lipase (hMAGL) (Homo sapiens, UniProt Q99685); test: spectrophotometric assay with 4-nitrophenyl acetate, single-point % inhibition at […]; assay type: biochemical
T1 construct: gene MGLL
T1 sequence (Q99685 1-303): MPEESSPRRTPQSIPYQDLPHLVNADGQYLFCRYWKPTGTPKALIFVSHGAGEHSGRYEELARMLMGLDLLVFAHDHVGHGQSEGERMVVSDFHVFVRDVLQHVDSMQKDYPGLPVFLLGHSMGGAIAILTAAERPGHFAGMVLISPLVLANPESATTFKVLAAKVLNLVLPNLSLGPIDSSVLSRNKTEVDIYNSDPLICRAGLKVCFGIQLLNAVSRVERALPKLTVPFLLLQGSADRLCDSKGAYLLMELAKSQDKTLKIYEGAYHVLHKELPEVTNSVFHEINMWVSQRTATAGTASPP

[2] = target: T1, human monoacylglycerol lipase (hMAGL); test: spectrophotometric assay with 4-nitrophenyl acetate, recombinant human MAGL, dose-response; assay type: biochemical

| IC50 [2] [µM] | SMILES | spectrophotometric assay with 4-nitrophenyl acetate, single-point % inhibition a [1] |
| --- | --- | --- |
| – | CCCCCC/C=C\CCCCCCCC(=O)OCCCCCCCCCCCCCCCC [3h, Hexadecyl (Z)-hexadec-9-enoate] | its close analogue 3h (cetyl palmitoleate), possessing the double bond at the same distance from the ester group as 3g, proved to be equally active |
| – | CCCCCCCC/C=C\CCCCCCCC(=O)OCCCCCCCCCCCCCCCC [3i, Hexadecyl oleate] | their longer analogue 3i (cetyl oleate) displayed slightly weaker potency in the same test |
| 36 ± 4 | CCCCCCCCCCCCCCCCOC(=O)CCCCCCCCC [3b, Hexadecyl decanoate] | – |
